From patent US12508261B2, “Methods of treating depression with vortioxetine” (Rundle Research LLC, priority 2017, dated 2025)

Experiment: Regression model estimating vortioxetine half-life and MAOI delay from total body fat and steady-state plasma concentration (CYP2D6 metabolizer status)
Parameters: species or system human
Description: Data obtained in the study described in Example 1 and Table 1 provided the basis for a regression model (having a r^2 value of 88%) based on total body fat and steady-state vortioxetine plasma concentration. Because the steady-state plasma concentration of vortioxetine correlates with metabolizer status, this regression provides a means of estimating vortioxetine half-life for patients based on total body fat and CYP2D6 metabolizer status.
Alternatively, the delay period can be calculated based on any particular values in Table 1, or any statistical parameter for characterizing the subject population of Table, such as the arithmetic mean, geometric mean, maximum, minimum, maximum or minimum 90% confidence interval, etc. of the half-life (e.g., 7.5×the average t1/2, 7.5×the maximum t1/2, and so forth, or the 21 day equivalency to a normal weight extensive metabolizer subject, based on the average t1/2 or the maximum t1/2 or any of the aforementioned statistically parameters).

[1] = Extensive(a) average of obese steady-state concentration for extensive metabolizers, total fat 60 kg
[2] = Extensive(a) average of obese steady-state concentration for extensive metabolizers, total fat 70 kg
[3] = Extensive(a) average of obese steady-state concentration for extensive metabolizers, total fat 80 kg
[4] = Extensive(a) average of obese steady-state concentration for extensive metabolizers, total fat 90 kg
[5] = Extensive(a) average of obese steady-state concentration for extensive metabolizers, total fat 100 kg
[6] = Extensive(b) high of extensive metabolizers, total fat 40 kg
[7] = Extensive(b) high of extensive metabolizers, total fat 50 kg
[8] = Extensive(b) high of extensive metabolizers, total fat 60 kg
[9] = Extensive(b) high of extensive metabolizers, total fat 70 kg
[10] = Extensive(b) high of extensive metabolizers, total fat 80 kg
[11] = Extensive(b) high of extensive metabolizers, total fat 90 kg
[12] = Extensive(b) high of extensive metabolizers, total fat 100 kg
[13] = IM(c) average of intermediate metabolizer values, total fat 10 kg
[14] = IM(c) average of intermediate metabolizer values, total fat 20 kg
[15] = IM(c) average of intermediate metabolizer values, total fat 30 kg
[16] = IM(c) average of intermediate metabolizer values, total fat 40 kg
[17] = IM(c) average of intermediate metabolizer values, total fat 50 kg
[18] = IM(c) average of intermediate metabolizer values, total fat 60 kg
[19] = IM(c) average of intermediate metabolizer values, total fat 70 kg
[20] = IM(c) average of intermediate metabolizer values, total fat 80 kg
[21] = IM(c) average of intermediate metabolizer values, total fat 90 kg
[22] = IM(c) average of intermediate metabolizer values, total fat 100 kg
[23] = IM(d) high of IM values, total fat 10 kg
[24] = IM(d) high of IM values, total fat 20 kg
[25] = IM(d) high of IM values, total fat 30 kg
[26] = IM(d) high of IM values, total fat 40 kg
[27] = IM(d) high of IM values, total fat 50 kg
[28] = IM(d) high of IM values, total fat 60 kg
[29] = IM(d) high of IM values, total fat 70 kg
[30] = IM(d) high of IM values, total fat 80 kg
[31] = IM(d) high of IM values, total fat 90 kg
[32] = IM(d) high of IM values, total fat 100 kg
[33] = PM(e) estimated poor metabolizer values, total fat 10 kg
[34] = PM(e) estimated poor metabolizer values, total fat 20 kg
[35] = PM(e) estimated poor metabolizer values, total fat 30 kg
[36] = PM(e) estimated poor metabolizer values, total fat 40 kg
[37] = PM(e) estimated poor metabolizer values, total fat 50 kg
[38] = PM(e) estimated poor metabolizer values, total fat 60 kg
[39] = PM(e) estimated poor metabolizer values, total fat 70 kg
[40] = PM(e) estimated poor metabolizer values, total fat 80 kg
[41] = PM(e) estimated poor metabolizer values, total fat 90 kg
[42] = PM(e) estimated poor metabolizer values, total fat 100 kg

Half-Life Estimates (Extensive(a) average of obese steady-state concentration for extensive metabolizers, total fat 10 kg): 21 h | Half-Life Estimates (Extensive(a) average of obese steady-state concentration for extensive metabolizers, total fat 20 kg): 32 h | Half-Life Estimates (Extensive(a) average of obese steady-state concentration for extensive metabolizers, total fat 30 kg): 42 h | Half-Life Estimates (Extensive(a) average of obese steady-state concentration for extensive metabolizers, total fat 40 kg): 52 h | Half-Life Estimates (Extensive(a) average of obese steady-state concentration for extensive metabolizers, total fat 50 kg): 62 h | Half-Life Estimates [1]: 73 h | Weeks of Delay (7.5 X half-life) [1]: 3.2 Weeks | Half-Life Estimates [2]: 83 h | Weeks of Delay (7.5 X half-life) [2]: 3.7 Weeks | Half-Life Estimates [3]: 93 h | Weeks of Delay (7.5 X half-life) [3]: 4.2 Weeks | Half-Life Estimates [4]: 103 h | Weeks of Delay (7.5 X half-life) [4]: 4.6 Weeks | Half-Life Estimates [5]: 114 h | Weeks of Delay (7.5 X half-life) [5]: 5.1 Weeks | Half-Life Estimates (Extensive(b) high of extensive metabolizers, total fat 10 kg): 39 h | Half-Life Estimates (Extensive(b) high of extensive metabolizers, total fat 20 kg): 49 h | Half-Life Estimates (Extensive(b) high of extensive metabolizers, total fat 30 kg): 59 h | Half-Life Estimates [6]: 70 h | Weeks of Delay (7.5 X half-life) [6]: 3.1 Weeks | Half-Life Estimates [7]: 80 h | Weeks of Delay (7.5 X half-life) [7]: 3.6 Weeks | Half-Life Estimates [8]: 90 h | Weeks of Delay (7.5 X half-life) [8]: 4.0 Weeks | Half-Life Estimates [9]: 100 h | Weeks of Delay (7.5 X half-life) [9]: 4.5 Weeks | Half-Life Estimates [10]: 111 h | Weeks of Delay (7.5 X half-life) [10]: 4.9 Weeks | Half-Life Estimates [11]: 121 h | Weeks of Delay (7.5 X half-life) [11]: 5.4 Weeks | Half-Life Estimates [12]: 131 h | Weeks of Delay (7.5 X half-life) [12]: 5.9 Weeks | Half-Life Estimates [13]: 102 h | Weeks of Delay (7.5 X half-life) [13]: 4.6 Weeks | Half-Life Estimates [14]: 112 h | Weeks of Delay (7.5 X half-life) [14]: 5.0 Weeks | Half-Life Estimates [15]: 123 h | Weeks of Delay (7.5 X half-life) [15]: 5.5 Weeks | Half-Life Estimates [16]: 133 h | Weeks of Delay (7.5 X half-life) [16]: 5.9 Weeks | Half-Life Estimates [17]: 143 h | Weeks of Delay (7.5 X half-life) [17]: 6.4 Weeks | Half-Life Estimates [18]: 153 h | Weeks of Delay (7.5 X half-life) [18]: 6.8 Weeks | Half-Life Estimates [19]: 164 h | Weeks of Delay (7.5 X half-life) [19]: 7.3 Weeks | Half-Life Estimates [20]: 174 h | Weeks of Delay (7.5 X half-life) [20]: 7.8 Weeks | Half-Life Estimates [21]: 184 h | Weeks of Delay (7.5 X half-life) [21]: 8.2 Weeks | Half-Life Estimates [22]: 194 h | Weeks of Delay (7.5 X half-life) [22]: 8.7 Weeks | Half-Life Estimates [23]: 116 h | Weeks of Delay (7.5 X half-life) [23]: 5.2 Weeks | Weeks of Delay (21 day equivalency to Normal, 66 hr half-life) [23]: 5.3 Weeks | Half-Life Estimates [24]: 126 h | Weeks of Delay (7.5 X half-life) [24]: 5.6 Weeks | Weeks of Delay (21 day equivalency to Normal, 66 hr half-life) [24]: 5.7 Weeks | Half-Life Estimates [25]: 136 h | Weeks of Delay (7.5 X half-life) [25]: 6.1 Weeks | Weeks of Delay (21 day equivalency to Normal, 66 hr half-life) [25]: 6.2 Weeks | Half-Life Estimates [26]: 147 h | Weeks of Delay (7.5 X half-life) [26]: 6.5 Weeks | Weeks of Delay (21 day equivalency to Normal, 66 hr half-life) [26]: 6.7 Weeks | Half-Life Estimates [27]: 157 h | Weeks of Delay (7.5 X half-life) [27]: 7.0 Weeks | Weeks of Delay (21 day equivalency to Normal, 66 hr half-life) [27]: 7.1 Weeks | Half-Life Estimates [28]: 167 h | Weeks of Delay (7.5 X half-life) [28]: 7.5 Weeks | Weeks of Delay (21 day equivalency to Normal, 66 hr half-life) [28]: 7.6 Weeks | Half-Life Estimates [29]: 177 h | Weeks of Delay (7.5 X half-life) [29]: 7.9 Weeks | Half-Life Estimates [30]: 188 h | Weeks of Delay (7.5 X half-life) [30]: 8.4 Weeks | Half-Life Estimates [31]: 198 h | Weeks of Delay (7.5 X half-life) [31]: 8.8 Weeks | Weeks of Delay (21 day equivalency to Normal, 66 hr half-life) [31]: 9.0 Weeks | Half-Life Estimates [32]: 208 h | Weeks of Delay (7.5 X half-life) [32]: 9.3 Weeks | Weeks of Delay (21 day equivalency to Normal, 66 hr half-life) [32]: 9.5 Weeks | Half-Life Estimates [33]: 215 h | Weeks of Delay (7.5 X half-life) [33]: 9.6 Weeks | Half-Life Estimates [34]: 225 h | Weeks of Delay (7.5 X half-life) [34]: 10.0 Weeks | Half-Life Estimates [35]: 235 h | Weeks of Delay (7.5 X half-life) [35]: 10.5 Weeks | Half-Life Estimates [36]: 245 h | Weeks of Delay (7.5 X half-life) [36]: 11.0 Weeks | Half-Life Estimates [37]: 256 h | Weeks of Delay (7.5 X half-life) [37]: 11.4 Weeks | Half-Life Estimates [38]: 266 h | Weeks of Delay (7.5 X half-life) [38]: 11.9 Weeks | Half-Life Estimates [39]: 276 h | Weeks of Delay (7.5 X half-life) [39]: 12.3 Weeks | Half-Life Estimates [40]: 286 h | Weeks of Delay (7.5 X half-life) [40]: 12.8 Weeks | Half-Life Estimates [41]: 297 h | Weeks of Delay (7.5 X half-life) [41]: 13.2 Weeks | Half-Life Estimates [42]: 307 h | Weeks of Delay (7.5 X half-life) [42]: 13.7 Weeks
Compound: Cc1ccc(Sc2ccccc2N2CCNCC2)c(C)c1 [vortioxetine]
